Assay results as given in the SangsterLogP compilation.

test: method code G-GLC, from DOI: 10.1021/je00030a025

Structure (SMILES)	logP
CCCCCCCCBr	4.89
CCCCCCBr	3.8
Fc1ccccc1CCl	2.67
ClCCCBr	2.18

Results, then the molecule that gave them:

logP	Structure (SMILES)
3.99	C=CCCCCC
4.7	CCCCCCCI
4.15	CCCCCCCCl
2.57	CCCCCCCO
2.73	C#CCCCC
5.15	C=CCCCCCCC
0.99	CCC(=O)CC
5.18	CCCCCCCC

test: method code G-HPLC, from DOI: 10.1021/je00030a025

Structure (SMILES)	logP
Fc1cccc(CCl)c1	2.77
C=CCCBr	2.53
CC(=O)OCCBr	1.11
O=Cc1ccco1	0.52

More lines, now with the values ahead:

logP	Structure (SMILES)
4.9	CCCCCc1ccccc1
2.76	CCCCCCC(C)=O
3.18	CCCCCCCC(C)=O
